Results on 15 compounds are retold here after patent US8088815B2, “Spiroindolinone pyrrolidines” (Hoffman-La Roche Inc., priority 2009, dated 2012).

Molecules are shown by their SMILES.

What is called IC50 is the midpoint of a concentration-inhibition curve.

In this experiment the target is interaction between p53 and MDM2 proteins (Homo sapiens, UniProt Q00987). Nature of the experiment: HTRF assay of inhibition of the p53-MDM2 interaction (GST-MDM2 / biotinylated p53 peptide). The note with it: recombinant GST-tagged MDM2 and biotinylated p53 peptide, bsa:0.02%. In kind it is binding. A general note: In TR-FRET formats the signal depends on donor and acceptor labels being close together.
interaction between p53 and MDM2 proteins, sequence (Q00987 whole entry): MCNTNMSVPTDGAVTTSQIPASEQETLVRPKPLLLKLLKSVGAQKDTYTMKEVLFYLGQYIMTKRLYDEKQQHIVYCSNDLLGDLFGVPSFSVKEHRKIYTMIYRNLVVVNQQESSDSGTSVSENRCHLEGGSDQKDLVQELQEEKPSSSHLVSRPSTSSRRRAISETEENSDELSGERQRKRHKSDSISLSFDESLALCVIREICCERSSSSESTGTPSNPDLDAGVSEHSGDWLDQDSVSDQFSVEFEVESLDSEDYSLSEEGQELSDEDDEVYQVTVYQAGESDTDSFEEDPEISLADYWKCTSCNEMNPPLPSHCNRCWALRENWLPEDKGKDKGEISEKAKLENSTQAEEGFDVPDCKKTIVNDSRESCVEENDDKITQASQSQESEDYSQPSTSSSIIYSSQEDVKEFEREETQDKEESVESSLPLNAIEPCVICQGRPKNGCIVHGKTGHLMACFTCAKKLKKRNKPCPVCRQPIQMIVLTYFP

As for `COc1cc(C(N)=O)ccc1NC(=O)[C@@H]1N[C@@H](CC(C)(C)C)[C@@]2(C(=O)Nc3cc(Br)ccc32)[C@H]1c1cccc(Cl)c1F` (racemic) [Example 119, rac-(2′S,3′R,4′S,5′R)-6-bromo-4′-(3-chloro-2-fluoro-phenyl)-2′-(2,2-dimethyl-propyl)-2-oxo-1,2-dihydro-spiro[indole-3,3′-pyrrolidine]-5′-carboxylic acid (4-carbamoyl-2-methoxy-phenyl)-amide], the IC50 is 7 nM.
`CN(C)C(=O)c1ccc(NC(=O)[C@@H]2N[C@@H](CC(C)(C)C)[C@@]3(C(=O)Nc4cc(Cl)ccc43)[C@H]2c2cccc(Cl)c2F)cc1` [Example 35, chiral (2′S,3′R,4′S,5′R)-6-chloro-4′-(3-chloro-2-fluoro-phenyl)-2′-(2,2-dimethyl-propyl)-2-oxo-1,2-dihydro-spiro[indole-3,3′-pyrrolidine]-5′-carboxylic acid (4-dimethylcarbamoyl-phenyl)-amide]: the IC50 was 5 nM.
With `CC(C)(C)C[C@@H]1N[C@@H](C(=O)Nc2ccc(C(N)=O)cc2)[C@H](c2cccc(Cl)c2F)[C@]12C(=O)Nc1cc(Cl)ccc12` (racemic) [Example 8, rac-(2′S,3′R,4′S,5′R)-6-chloro-4′-(3-chloro-2-fluoro-phenyl)-2′-(2,2-dimethyl-propyl)-2-oxo-1,2-dihydro-spiro[indole-3,3′-pyrrolidine]-5′-carboxylic acid (4-carbamoyl-phenyl)-amide], the IC50 stood at 7 nM.
Turning to `COc1cc(OCCO)ccc1NC(=O)[C@@H]1N[C@@H](CC(C)(C)C)[C@@]2(C(=O)Nc3c2ccc(Cl)c3F)[C@H]1c1cccc(Cl)c1F` (racemic) [Example 179, rac-(2′S,3′R,4′S,5′R)-6-chloro-4′-(3-chloro-2-fluoro-phenyl)-2′-(2,2-dimethyl-propyl)-7-fluoro-2-oxo-1,2-dihydro-spiro[indole-3,3′-pyrrolidine]-5′-carboxylic acid [4-(2-hydroxy-ethoxy)-2-methoxy-phenyl]-amide], the IC50 came out at 39 nM.
As for `COc1cc(NS(C)(=O)=O)ccc1NC(=O)[C@@H]1N[C@@H](CC(C)(C)C)[C@@]2(C(=O)Nc3cc(Cl)ccc32)[C@H]1c1cccc(Cl)c1F` (racemic) [Example 155, rac-(2′S,3′R,4′S,5′R)-6-chloro-4′-(3-chloro-2-fluoro-phenyl)-2′-(2,2-dimethyl-propyl)-2-oxo-1,2-dihydro-spiro[indole-3,3′-pyrrolidine]-5′-carboxylic acid (4-methanesulfonylamino-2-methoxy-phenyl)-amide], the half-inhibitory concentration (IC50) stood at 13 nM.
The figure for `COC(=O)c1ccc(NC(=O)[C@@H]2N[C@@H](CC(C)(C)C)[C@@]3(C(=O)Nc4cc(Cl)ccc43)[C@H]2c2cccc(Cl)c2)c(OC)c1` (racemic) [Example 107, rac-4-{[(2′S,3′R,4′R,5′R)-6-chloro-4′-(3-chloro-phenyl)-2′-(2,2-dimethyl-propyl)-2-oxo-1,2-dihydro-spiro[indole-3,3′-pyrrolidine]-5′-carbonyl]-amino}-3-methoxy-benzoic acid methyl ester] is 17 nM; for `CC(C)(C)C[C@@H]1N[C@@H](C(=O)Nc2ccc(C(N)=O)cc2)[C@H](c2cccc(Cl)c2F)[C@]12C(=O)Nc1cc(Cl)c(F)cc12` (racemic) [Example 49, rac-(2′S,3′R,4′S,5′R)-6-chloro-4′-(3-chloro-2-fluoro-phenyl)-2′-(2,2-dimethyl-propyl)-5-fluoro-2-oxo-1,2-dihydro-spiro[indole-3,3′-pyrrolidine]-5′-carboxylic acid (4-carbamoyl-phenyl)-amide] it is 13 nM.
On to `COc1cc(C(=O)O)c(F)cc1NC(=O)[C@@H]1N[C@@H](CC(C)(C)C)[C@@]2(C(=O)Nc3cc(Cl)ccc32)[C@H]1c1cccc(Cl)c1F` [Example 221, chiral 4-{[(2′S,3′R,4′S,5′R)-6-chloro-4′-(3-chloro-2-fluoro-phenyl)-2′-(2,2-dimethyl-propyl)-2-oxo-1,2-dihydro-spiro[indole-3,3′-pyrrolidine]-5′-carbonyl]amino}-2-fluoro-5-methoxy-benzoic acid], for which the IC50 came to 5 nM.
To `CC(C)(C)C[C@@H]1N[C@@H](C(=O)Nc2ccccc2)[C@H](c2cccc(Cl)c2F)[C@]12C(=O)Nc1cc(Cl)ccc12` [Example 147, chiral (2′S,3′R,4′S,5′R)-6-chloro-4′-(3-chloro-2-fluoro-phenyl)-2′-(2,2-dimethyl-propyl)-2-oxo-1,2-dihydro-spiro[indole-3,3′-pyrrolidine]-5′-carboxylic acid phenylamide] belongs 11 nM.
On to `CC(C)(C)C[C@@H]1N[C@@H](C(=O)Nc2ccc(C(N)=O)s2)[C@H](c2cccc(Cl)c2F)[C@]12C(=O)Nc1cc(Cl)ccc12` (racemic) [Example 188, rac-(2′S,3′R,4′S,5′R)-6-chloro-4′-(3-chloro-2-fluoro-phenyl)-2′-(2,2-dimethyl-propyl)-2-oxo-1,2-dihydro-spiro[indole-3,3′-pyrrolidine]-5′-carboxylic acid (5-carbamoyl-thiophen-2-yl)-amide], for which the IC50 came to 8 nM.
For the compound `COc1cc(OCCSC)ccc1NC(=O)[C@@H]1N[C@@H](CC(C)(C)C)[C@@]2(C(=O)Nc3cc(Cl)ccc32)[C@H]1c1cccc(Cl)c1F` [Example 169, chiral (2′S,3′R,4′S,5′R)-6-chloro-4′-(3-chloro-2-fluoro-phenyl)-2′-(2,2-dimethyl-propyl)-2-oxo-1,2-dihydro-spiro[indole-3,3′-pyrrolidine]-5′-carboxylic acid [2-methoxy-4-(2-methylsulfanyl-ethoxy)-phenyl]-amide], the IC50 was 11 nM.
As to `CC(C)(C)C[C@@H]1N[C@@H](C(=O)Nc2ccc(C#N)cc2F)[C@H](c2cccc(Cl)c2F)[C@]12C(=O)Nc1cc(Cl)ccc12` (racemic) [Example 52, rac-(2′S,3′R,4′S,5′R)-6-chloro-4′-(3-chloro-2-fluoro-phenyl)-2′-(2,2-dimethyl-propyl)-2-oxo-1,2-dihydro-spiro[indole-3,3′-pyrrolidine]-5′-carboxylic acid (4-cyano-2-fluoro-phenyl)-amide], the IC50 was 12 nM.
With `CC(C)(C)C[C@@H]1N[C@@H](C(=O)Nc2ccc(C(N)=O)cc2)[C@H](c2cccc(Cl)c2)[C@]12C(=O)Nc1cc(Cl)ccc12` [Example 65B, chiral (2′S,3′R,4′R,5′R)-6-chloro-4′-(3-chloro-phenyl)-2′-(2,2-dimethyl-propyl)-2-oxo-1,2-dihydro-spiro[indole-3,3′-pyrrolidine]-5′-carboxylic acid (4-carbamoyl-phenyl)-amide], the IC50 turned out to be 6 nM.
For `COc1cc(C(=O)O)ccc1NC(=O)[C@@H]1N[C@@H](CC(C)(C)C)[C@@]2(C(=O)Nc3cc(Cl)ccc32)[C@H]1c1cccc(Cl)c1F` (racemic) [Example 110, rac-4-{[(2′S,3′R,4′S,5′R)-6-chloro-4′-(3-chloro-2-fluoro-phenyl)-2′-(2,2-dimethyl-propyl)-2-oxo-1,2-dihydro-spiro[indole-3,3′-pyrrolidine]-5′-carbonyl]-amino}-3-methoxy-benzoic acid], the IC50 is 11 nM.
For `CC(C)(C)C[C@@H]1N[C@@H](C(=O)Nc2ccc(C(N)=O)cc2)[C@H](c2cccc(Cl)c2F)[C@]12C(=O)Nc1cc(Cl)cc(F)c12` [Example 74, chiral (2′S,3′R,4′S,5′R)-6-chloro-4′-(3-chloro-2-fluoro-phenyl)-2′-(2,2-dimethyl-propyl)-4-fluoro-2-oxo-1,2-dihydro-spiro[indole-3,3′-pyrrolidine]-5′-carboxylic acid (4-carbamoyl-phenyl)-amide], the IC50 came out at 6 nM.
